In patent US12472193B2, “Methods and compositions for treating and preventing respiratory related diseases and conditions with xylitol-headgroup lipid analogs” (National Jewish Health, priority 2017, dated 2025):
Entries after “also recorded” stand apart in the source; their conditions may differ.

Biological target: T1, TLR 9 (Mus musculus, UniProt Q9EQU3)
T1 construct: RAW264.7 cells secrete TNF-α in response to the TLR9 agonist CpG; endogenous in cells; host or cells: RAW264.7 (ATCC)
T1 sequence (Q9EQU3 26-1032): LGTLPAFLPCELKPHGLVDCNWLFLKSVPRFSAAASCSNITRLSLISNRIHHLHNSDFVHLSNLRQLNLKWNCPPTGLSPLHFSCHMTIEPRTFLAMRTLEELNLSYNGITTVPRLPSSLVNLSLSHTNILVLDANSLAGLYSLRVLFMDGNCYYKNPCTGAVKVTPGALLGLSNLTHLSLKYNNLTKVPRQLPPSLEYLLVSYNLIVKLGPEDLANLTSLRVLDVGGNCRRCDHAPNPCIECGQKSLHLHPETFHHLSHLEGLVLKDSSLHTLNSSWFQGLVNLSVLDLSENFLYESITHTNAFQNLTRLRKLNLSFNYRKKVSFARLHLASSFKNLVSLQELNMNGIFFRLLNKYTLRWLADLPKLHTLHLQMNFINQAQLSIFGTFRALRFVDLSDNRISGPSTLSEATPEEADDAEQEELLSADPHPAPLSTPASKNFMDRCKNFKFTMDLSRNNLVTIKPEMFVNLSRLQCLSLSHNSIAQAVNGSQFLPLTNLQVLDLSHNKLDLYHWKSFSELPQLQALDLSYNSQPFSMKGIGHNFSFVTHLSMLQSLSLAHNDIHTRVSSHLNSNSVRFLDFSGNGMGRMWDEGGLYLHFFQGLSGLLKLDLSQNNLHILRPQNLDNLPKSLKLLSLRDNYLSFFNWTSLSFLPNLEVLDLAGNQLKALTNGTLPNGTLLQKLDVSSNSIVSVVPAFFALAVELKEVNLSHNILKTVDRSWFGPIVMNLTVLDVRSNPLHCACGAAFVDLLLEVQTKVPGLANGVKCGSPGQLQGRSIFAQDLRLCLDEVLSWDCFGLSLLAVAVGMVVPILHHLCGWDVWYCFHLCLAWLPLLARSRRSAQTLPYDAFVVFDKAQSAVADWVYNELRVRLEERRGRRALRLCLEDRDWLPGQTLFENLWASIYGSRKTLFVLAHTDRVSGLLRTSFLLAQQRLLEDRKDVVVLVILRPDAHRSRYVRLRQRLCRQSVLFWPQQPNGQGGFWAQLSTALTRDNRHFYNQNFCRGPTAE
Experiment: CpG-induced TNFα secretion by RAW264.7 cells (TLR 9 antagonism)
Format: cell-based
Conditions: for antagonism of TLR 9 activation (TNFα secretion): 5 μg/mL CpG, 100 μg/mL phospholipid, 5.5 hours; for TLR9 antagonist activity: reduction in cytokine secretion vs activating TLR ligand alone
Description: The mouse macrophage cell line, RAW264.7, was obtained from ATCC and maintained in DMEM, supplemented with 10% bovine growth serum and 1× penicillin streptomycin. Cells were maintained at 37° C. with 5% carbon dioxide: 95% air atmosphere within the incubator. Experiments were completed in a 96-well plate where cells were seated at a density of 1×10^5 cells per well, 24 prior to stimulation with TLR agonists and antagonists. Lipids were dried under a stream of nitrogen, hydrated with phosphate-buffered saline (PBS) at 37° C. for one hour, followed by water bath sonication to create liposomes. Each condition for cell stimulation and antagonism was prepared in DMEM in a separate tube and consisted of: control, TLR agonist, TLR agonist+lipid, and lipid alone. 100 μL aliquots of medium+agonists+antagonists were added to each well and incubated at 37° C. for 4 hours. Subsequently, the media were collected, diluted and an enzyme-linked immunosorbent assay (ELISA) was performed to quantify TNFα release by cells.
TLR 9 is another member of the intracellular TLRs found in the endosomal compartment. It detects unmethylated CpG sequences in DNA molecules commonly found among bacteria and DNA viruses (H. Hemmi, et al., “A Toll-like receptor recognizes bacterial DNA.,” Nature, vol. 408, no. 6813, pp. 740-5, December 2000; J. Lund, et al, “Toll-like receptor 9-mediated recognition of Herpes simplex virus-2 by plasmacytoid dendritic cells.,” J. Exp. Med., vol. 198, no. 3, pp. 513-20, August 2003). To test antagonism activity of PX lipids against TLR 9, RAW264.7 cells were stimulated for 5.5 hours with 5 μg/mL CpG in the absence or presence of 100 μg/mL phospholipid. […] The action of CpG is not affected by POPC, POPG, or many of the xylitol phospholipids, such as 14:0 DEPX, DSPX and 18:1 DEPX.

CCCCCCCCCCCCCCOC[C@H](COP(=O)(O)OCC(O)C(O)C(O)CO)OCCCCCCCCCCCCCC (mixture of isomers) [14:0 DEPX, sn-1-O-myristyl, sn-2-O-myristyl sn-3 glycerol phosphoxylitol]
antagonism of TLR 9 activation (TNFα secretion): not affected

CCCCCCCCC=CCCCCCCCCOCC(COP(=O)(O)OCC(O)C(O)C(O)CO)OCCCCCCCCC=CCCCCCCCC (mixture of isomers) [18:1 DEPX, sn-1-O-octadecenyl, sn-2-O-octadecenyl sn-3 glycerol phosphoxylitol]
antagonism of TLR 9 activation (TNFα secretion): not affected

CCCCCC=CCC=CCCCCCCCC(=O)OCC(COP(=O)(O)OCC(O)C(O)C(O)CO)OC(=O)CCCCCCCC=CCC=CCCCCC (mixture of isomers) [18:2 DLPX, sn-1-linoleoyl, sn-2-linoleoyl sn-3 glycerol phosphoxylitol]
antagonism of TLR 9 activation (TNFα secretion): effective against TLR 9 activation; also recorded: only effective antagonists of TLR 9 activation
TLR9 antagonist activity: + (cutoff being greater than a 50% reduction in cytokine secretion compared to activating TLR ligand alone)

CCCCCCCCCCCCCC(=O)OC[C@H](COP(=O)(O)OCC(O)C(O)C(O)CO)OC(=O)CCCCCCCCCCCCC (mixture of isomers) [DMPX, sn-1-myristoyl, sn-2-myristoyl sn-3 glycerol phosphoxylitol]
antagonism of TLR 9 activation (TNFα secretion): acts as an agonist for TLR9 activation

CCCCCCCCC=CCCCCCCCC(=O)OCC(COP(=O)(O)OCC(O)C(O)C(O)CO)OC(=O)CCCCCCCC=CCCCCCCCC (mixture of isomers) [DOPX, sn-1-oleoyl, sn-2-oleoyl sn-3 glycerol phosphoxylitol]
antagonism of TLR 9 activation (TNFα secretion): reduce the TNF-α secretion to control levels; also recorded: inhibits; also recorded: effective against TLR 9 activation; also recorded: only effective antagonists of TLR 9 activation
TLR9 antagonist activity: + (cutoff being greater than a 50% reduction in cytokine secretion compared to activating TLR ligand alone)

CCCCCCCCCCCCCCCCCC(=O)OCC(COP(=O)(O)OCC(O)C(O)C(O)CO)OC(=O)CCCCCCCCCCCCCCCCC (stereo not drawn) [DSPX, sn-1-stearoyl, sn-2-stearoyl sn-3 glycerol phosphoxylitol]
antagonism of TLR 9 activation (TNFα secretion): not affected

CCCCCCCC/C=C\CCCCCCCC(=O)O[C@H](COC(=O)CCCCCCCCCCCCCCC)COP(=O)([O-])OCC[N+](C)(C)C [POPC, 1-palmitoyl-2-oleoyl-sn-glycero-3-phosphocholine, reference compound]
antagonism of TLR 9 activation (TNFα secretion): not affected

CCCCCCCC/C=C\CCCCCCCC(=O)O[C@H](COC(=O)CCCCCCCCCCCCCCC)COP(=O)(O)OCC(O)CO (stereo partly drawn) [POPG, palmitoyl-oleoyl-phosphatidylglycerol, reference compound]
antagonism of TLR 9 activation (TNFα secretion): not affected

CCCCCCCC/C=C\CCCCCCCC(=O)O[C@H](COC(=O)CCCCCCCCCCCCCCC)COP(=O)(O)OCC(O)C(O)C(O)CO (stereo partly drawn) [POPX, sn-1-palmitoyl, sn-2-oleoyly sn-3 glycerol phosphoxylitol]
antagonism of TLR 9 activation (TNFα secretion): reduce the TNF-α secretion to control levels; also recorded: inhibits; also recorded: effective against TLR 9 activation; also recorded: only effective antagonists of TLR 9 activation
TLR9 antagonist activity: + (cutoff being greater than a 50% reduction in cytokine secretion compared to activating TLR ligand alone)
